Measured values: patent publication US6906205B2, “Spiro and dispiro 1,2,4-trioxolane antimalarials” (Medicines for Malaria Venture MMV, priority 2002, dated 2005)
≈ marks a conversion by molar mass, not a printed value.

Experiments:
[1] = tested on: P. falciparum K1 strain (Thailand resistant to chloroquine); assay: semiautomated microdilution assay, [3H]-hypoxanthine incorporation, K1 strain; format: cell-based, Plasmodium falciparum; details: K1 strain, 72 h incubation
Outline: (§1)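 Compounds were tested against intraerythrocytic parasites taken from asynchronous stock cultures, using semiautomated microdilution. IC50 values were estimated by logit regression analysis.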

[2] = tested on: P. falciparum NF54 strain (sensitive to standard antimalarials); assay: semiautomated microdilution assay, [3H]-hypoxanthine incorporation, NF54 strain; format: cell-based, Plasmodium falciparum; details: NF54 strain, 72 h incubation
Outline: as §1

[3] = tested on: ANKA strain of P. berghei; assay: single dose STI in vivo screen in infected mice; set-up: species or system Plasmodium berghei; details: for Activity (%) po / Activity (%) sc / Activity (%) SSVpo: percent reduction in parasitemia day 3 post-infection, mice; for Activity (%) po / Survival (days) po: single 10 mg/kg po in 3% ethanol and 7% Tween 80; for Activity (%) sc / Survival (days) sc: single 10 mg/kg sc in 3% ethanol and 7% Tween 80; for Activity (%) SSVpo: single po dose in standard suspending vehicle (SSV); for Survival (days) po / Survival (days) sc / Survival (days) SSVpo: untreated control 5.6 ± 0.3; for Survival (days) SSVpo: single po dose in SSV
Outline: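 Groups of 3-5 Moro SPF or NMRI mice infected with the ANKA strain of P. berghei received a single dose of trioxolane on day one post-infection. The compound was given in 3% ethanol and 7% Tween 80 or in SSV (0.5% w/v CMC, 0.5% v/v benzyl alcohol, 0.4% v/v Tween 80, 0.9% w/v sodium chloride in water). Antimalarial activity was scored as percent reduction in parasitemia on day three and as survival time versus untreated controls. Survival to day 30 counted as cure.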

SMILES	IC50 (ng/ml) K1 [1]	IC50 (ng/ml) NF54 [2]	Activity (%) po [3]	Activity (%) sc [3]	Activity (%) SSVpo [3]	Survival (days) po [3]	Survival (days) sc [3]	Survival (days) SSVpo [3]
O=S(=O)(c1cccc2cccnc12)N1CCC2(CC1)OOC1(O2)C2CC3CC(C2)CC1C3 (centres unmarked) [OZ114]	3.7 ng/mL (≈ 8.1 nM)	2.2 ng/mL (≈ 4.82 nM)	0%	99.64%	0%	5.7 days	8.7 days	6.0 days
CCCCCCCCS(=O)(=O)N1CCC2(CC1)OOC1(O2)C2CC3CC(C2)CC1C3 (centres unmarked) [OZ115]	11 ng/mL (≈ 24.9 nM)	6.9 ng/mL (≈ 15.6 nM)	33%	97%	0%	6.3 days	7.3 days	5.7 days
O=C(NO)[C@H]1CC[C@]2(CC1)OOC1(O2)C2CC3CC(C2)CC1C3 (some centres unmarked) [OZ116]	4.2 ng/mL (≈ 13 nM)	3.3 ng/mL (≈ 10.2 nM)	97%	96%	96%	7.7 days	8.0 days	8.3 days
NCC1(c2ccccc2)CCC2(CC1)OOC1(O2)C2CC3CC(C2)CC1C3 (centres unmarked) [OZ117]	2.1 ng/mL (≈ 5.68 nM)	1.2 ng/mL (≈ 3.25 nM)	95%	99.94%	96%	7.0 days	8.7 days	7.7 days
CC(=O)OC[C@H]1CC[C@]2(CC1)OOC1(O2)C2CC3CC(C2)CC1C3 (some centres unmarked) [OZ118]	1.0 ng/mL (≈ 2.97 nM)	0.24 ng/mL (≈ 0.713 nM)	99.0%	99.57%	98%	7.0 days	8.3 days	8.0 days
CCOC(=O)C1(C(=O)OCC)COC2(CCC3(CC2)OOC2(O3)C3CC4CC(C3)CC2C4)OC1 (centres unmarked) [OZ120]	1.2 ng/mL (≈ 2.5 nM)	0.59 ng/mL (≈ 1.23 nM)	33%	96%	8%	6.0 days	8.0 days	5.7 days
OCC1(CO)COC2(CCC3(CC2)OOC2(O3)C3CC4CC(C3)CC2C4)OC1 (centres unmarked) [OZ121]	0.96 ng/mL (≈ 2.42 nM)	0.41 ng/mL (≈ 1.03 nM)	91%	99.61%	98%	7.3 days	7.3 days	8.0 days
O=C(O)C1(C(=O)O)COC2(CCC3(CC2)OOC2(O3)C3CC4CC(C3)CC2C4)OC1 (centres unmarked) [OZ122]	>100/>100 ng/ml	>100/>100 ng/ml	10%	0%	3%	5.7 days	5.0 days	5.3 days
BrC[C@H]1CC[C@]2(CC1)OOC1(O2)C2CC3CC(C2)CC1C3 (some centres unmarked) [OZ123]	1.6 ng/mL (≈ 4.48 nM)	1.9 ng/mL (≈ 5.32 nM)	99.66%	99.96%	94%	8.0 days	16 days	7.0 days
N#Cc1ccc(C2(c3ccccc3)OOC3(O2)C2CC4CC(C2)CC3C4)cc1 (centres unmarked) [OZ124]	2.1 ng/mL (≈ 5.62 nM)	1.7 ng/mL (≈ 4.55 nM)	72%	86%	17%	6.3 days	7.0 days	5.3 days
CCOC(=O)c1ccc(C2(c3ccc(C(=O)OCC)cc3)OOC3(O2)C2CC4CC(C2)CC3C4)cc1 (centres unmarked) [OZ125]	68 ng/mL (≈ 138 nM)	> 100 ng/mL	8%	0%	0%	5.3 days	6.0 days	5.7 days
C=C1COC2(CCC3(CC2)OOC2(O3)C3CC4CC(C3)CC2C4)OC1 (centres unmarked) [OZ128]	0.59 ng/mL (≈ 1.69 nM)	1.1 ng/mL (≈ 3.16 nM)	99.93%	99.98%	99.95%	8.3 days	11.7 days	8.7 days
CC(C)(CO)NC(=O)[C@H]1CC[C@]2(CC1)OOC1(O2)C2CC3CC(C2)CC1C3 (some centres unmarked) [OZ129]	10/>10 ng/ml	10/>10 ng/ml	0%	0%	4%	5.3 days	5.7 days	5.7 days
O=S(=O)(Cc1ccccc1)N1CCC2(CC1)OOC1(O2)C2CC3CC(C2)CC1C3 (centres unmarked) [OZ131]	1.7 ng/mL (≈ 4.05 nM)	4.1 ng/mL (≈ 9.77 nM)	21%	90%	41%	5.7 days	8.0 days	6.0 days
O=C(O)c1ccccc1C(=O)N1CCC2(CC1)OOC1(O2)C2CC3CC(C2)CC1C3 (centres unmarked) [OZ132]	9.8 ng/mL (≈ 23.7 nM)	> 10 ng/mL	38%	40%	0%	6.3 days	6.3 days	5.7 days
c1ccc2c(c1)OCCC21OOC2(O1)C1CC3CC(C1)CC2C3 (centres unmarked) [OZ134]	0.88 ng/mL (≈ 2.8 nM)	1.1 ng/mL (≈ 3.5 nM)	72%	99.95%	27%	6.3 days	15.3 days	6.0 days
O=C(O)c1ccc(C2(c3ccc(C(=O)O)cc3)OOC3(O2)C2CC4CC(C2)CC3C4)cc1 (centres unmarked) [OZ135]	>100/>100 ng/ml	>100/>100 ng/ml	1%	0%	0%	5.3/5.3/5.3 days	5.3/5.3/5.3 days	5.3/5.3/5.3 days
COC(=O)c1ccc(C2(c3ccccc3)OOC3(O2)C2CC4CC(C2)CC3C4)cc1 (centres unmarked) [OZ138]	10 ng/mL (≈ 24.6 nM)	19 ng/mL (≈ 46.7 nM)	0%	7%	5%	5.7 days	6.3 days	6.3 days
O=C(OC[C@H]1CC[C@]2(CC1)OOC1(O2)C2CC3CC(C2)CC1C3)n1ccnc1 (some centres unmarked) [OZ141]	1.7 ng/mL (≈ 4.38 nM)	1.9 ng/mL (≈ 4.89 nM)	98%	99.89%	97%	8.0 days	8.7 days	8.0 days
